Measured values taken from patent US8093218B2, “Peptide derived from vascular endothelial growth factor receptor-1 binding integrin α5β1 having proangiogenic activity” (Provincia Italiana della Congregazione dei Figli …, priority 2006, dated 2012).
“Also recorded” adds a separate entry of the source.

T1: VEGF (Homo sapiens, UniProt P15692)
T1 sequence (P15692 207-320 limits assumed): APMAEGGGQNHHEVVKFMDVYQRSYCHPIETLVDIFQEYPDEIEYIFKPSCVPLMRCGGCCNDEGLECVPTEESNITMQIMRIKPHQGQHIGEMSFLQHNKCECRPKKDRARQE


Key:
VEGF = biological target: T1, VEGF; conditions: previously published; cited from earlier work
angiogenesis = conditions: previously published; cited from earlier work
[1] = system: HUVEC adhesion to VEGFR-1/Fc; test: inhibition by peptides of EC adhesion to VEGFR-1/Fc; format: cell-based, human; conditions: peptide added to HUVEC suspension before plating
Experimental: (§1) In order to test the ability of the twelve chosen peptides to inhibit the adhesion of the EC to VEGFR-1 mediated from the integrin α5β1, every peptide was added to one suspension of HUVEC before plated on dishes covered with VEGFR-1/Fc or fibronectin (FN). The data were indicated as percentage of adhesion, calculated to the number of cells adhered on the substrate itself in absence of peptides.

HUVEC [2] = test: adhesion of HUVEC on plates with covalently linked peptides; format: cell-based, human; conditions: HUVEC incubated 1 hour on covalently linked peptide
Experimental: To establish whether the four peptides, were able to inhibit the adhesion of the EC to VEGFR-1, by supporting directly the adhesion of the EC, the peptides were linked covalently to plates and the HUVEC were incubated on plates for 1 hour. The peptide 1 was used as negative control and the peptide RGD as the positive control. Unspecific adhesion was measured by absorbance in the plates covered with BSA.

[3] = system: HUVEC migration induced by fibronectin (FN); test: EC migration in Boyden chambers induced by fibronectin; format: cell-based, human; conditions: HUVEC pre-incubated with peptide
Experimental: (§2) In order to investigate the ability to peptide 12 to influence the migration of the EC induced from VEGFR-1/Fc, a process mediated from the integrin α5β1, the HUVEC were pre-incubated with peptide 12 and peptide 1 and placed in Boyden chambers in order to analyze the migration induced from VEGFR-1/Fc or fibronectin (FN). Data represent the average of 14 microscopic fields and are referred to as percentage of inhibition compared to the migration observed in the absence of peptides.

[4] = system: HUVEC adhesion to peptide 12; test: adhesion of HUVEC to peptide 12 in presence of chelating agents or anti-integrin antibodies; format: cell-based, human; conditions: EDTA or EGTA treatment
Experimental: The peptide 12 or the BSA, as non-specific adhesion control, were linked on plates and the HUVEC added in the presence of chelating agents (EDTA or EGTA).
The HUVEC were pre-incubated with an antibody against the integrin α5β1 or versus the integrinic subunit α6 and left to adhere on plates covered with peptide 12 or BSA.

rabbit corneal tissue = test: rabbit corneal neovascularization with peptide-releasing pellets; format: in vivo; conditions: rabbit cornea, monitored for 17 days
Source text: The FIGS. 6A and 6B show the effect on angiogenesis of the peptide 12 or Y220 compare to VEGF at different concentrations.
To address the angiogenic role, in vivo, pellets releasing peptide 12 were implanted into rabbit corneal tissue and neovascularization was monitored for 17 days.

[5] = system: HUVEC adhesion to fibronectin (FN); test: inhibition by peptides of EC adhesion to fibronectin; format: cell-based, human; conditions: peptide added to HUVEC suspension before plating
Experimental: as §1

HUVEC [6] = test: formation of tubules of EC in Type I collagen gel; format: cell-based, human
Experimental: It was tested the ability of the peptide 12 to induce the formation of tubules of EC. HUVEC cells were plated on 24 wells plates previously covered with a mixture of gel Type I collagen, in the absence or presence of 500 μg/ml peptide 12 or peptide 1. A second layer of gel Type I collagen was placed on the adherent cells. As shown, in the absence or presence of peptides, were added, in the culture medium, different concentrations of VEGF (40 or 100 nM), or 20 μg/ml of protein VEGFR-1/Fc.

[7] = system: HUVEC migration induced from VEGFR-1/Fc; test: EC migration in Boyden chambers induced by VEGFR-1/Fc; format: cell-based, human; conditions: HUVEC pre-incubated with peptide
Experimental: as §2

integrin α5β1 [8] = biological target: T2, integrin α5β1 (Homo sapiens, UniProt P05556+P08648); test: integrin α5β1 aggregation around peptide-coated magnetic beads (immunostaining); format: cell-based; parameters: endogenous in cells; host or cells: HUVEC; conditions: magnetic beads coated with peptide, immunostaining for integrin α5β1
T2 sequence (P08648 42-894 limits assumed): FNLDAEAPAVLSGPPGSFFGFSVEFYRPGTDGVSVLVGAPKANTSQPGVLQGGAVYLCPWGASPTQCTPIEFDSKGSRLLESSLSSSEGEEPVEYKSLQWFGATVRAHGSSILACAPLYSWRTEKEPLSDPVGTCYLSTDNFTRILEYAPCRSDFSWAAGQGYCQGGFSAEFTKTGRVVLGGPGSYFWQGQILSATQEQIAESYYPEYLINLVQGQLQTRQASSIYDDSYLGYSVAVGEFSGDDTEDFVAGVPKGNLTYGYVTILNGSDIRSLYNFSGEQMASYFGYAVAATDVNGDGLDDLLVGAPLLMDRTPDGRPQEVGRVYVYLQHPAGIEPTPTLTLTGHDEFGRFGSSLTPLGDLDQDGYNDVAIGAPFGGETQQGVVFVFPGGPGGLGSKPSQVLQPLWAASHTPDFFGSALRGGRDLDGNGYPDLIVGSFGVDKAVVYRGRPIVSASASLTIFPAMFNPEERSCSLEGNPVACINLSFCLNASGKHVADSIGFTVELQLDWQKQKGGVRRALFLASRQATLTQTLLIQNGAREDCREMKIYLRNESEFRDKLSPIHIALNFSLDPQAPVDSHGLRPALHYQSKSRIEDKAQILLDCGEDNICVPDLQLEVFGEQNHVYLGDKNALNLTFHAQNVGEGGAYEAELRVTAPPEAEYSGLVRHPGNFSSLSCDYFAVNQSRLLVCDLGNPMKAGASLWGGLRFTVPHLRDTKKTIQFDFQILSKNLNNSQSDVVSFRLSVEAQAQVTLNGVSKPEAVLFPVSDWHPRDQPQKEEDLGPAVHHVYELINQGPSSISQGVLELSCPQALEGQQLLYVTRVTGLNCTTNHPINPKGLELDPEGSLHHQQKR
T2 sequence (P08648 895-1049 partner limits assumed): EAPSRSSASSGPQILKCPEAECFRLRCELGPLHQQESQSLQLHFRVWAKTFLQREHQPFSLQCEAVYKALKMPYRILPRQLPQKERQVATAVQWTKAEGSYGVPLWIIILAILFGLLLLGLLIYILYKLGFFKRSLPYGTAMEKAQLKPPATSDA
T2 sequence (P05556 21-798): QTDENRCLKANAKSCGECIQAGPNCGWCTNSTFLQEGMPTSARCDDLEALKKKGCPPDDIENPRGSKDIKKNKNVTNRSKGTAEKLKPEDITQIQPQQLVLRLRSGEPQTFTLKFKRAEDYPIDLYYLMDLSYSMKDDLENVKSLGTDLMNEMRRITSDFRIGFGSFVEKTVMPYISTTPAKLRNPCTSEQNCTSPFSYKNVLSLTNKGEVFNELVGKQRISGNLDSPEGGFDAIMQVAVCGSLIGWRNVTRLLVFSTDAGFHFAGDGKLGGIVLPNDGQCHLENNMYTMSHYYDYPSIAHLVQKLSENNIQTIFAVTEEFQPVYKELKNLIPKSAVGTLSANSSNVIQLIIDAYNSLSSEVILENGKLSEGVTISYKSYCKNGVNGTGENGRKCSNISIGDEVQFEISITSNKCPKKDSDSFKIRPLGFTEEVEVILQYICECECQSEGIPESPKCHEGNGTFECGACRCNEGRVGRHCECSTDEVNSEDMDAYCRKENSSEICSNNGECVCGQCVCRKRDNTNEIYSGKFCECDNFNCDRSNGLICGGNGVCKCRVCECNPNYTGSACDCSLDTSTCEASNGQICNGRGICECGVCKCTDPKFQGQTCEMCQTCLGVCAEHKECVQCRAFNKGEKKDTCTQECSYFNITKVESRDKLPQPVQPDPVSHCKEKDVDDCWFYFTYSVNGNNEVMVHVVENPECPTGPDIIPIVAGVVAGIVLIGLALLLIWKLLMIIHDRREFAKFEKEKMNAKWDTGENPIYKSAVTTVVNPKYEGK
Experimental: The integrins not linked are widely distributed on cellular membrane, but after the ligand binding and the activation merged in distinct structures called focal contacts and ECM contact.
It was examined whether the peptide 12 was able to induce aggregation of integrin α5β1 after the binding. EC adherent cells were incubated with magnetic beads coated with peptide 12, or peptide RGD or peptide RGE respectively as positive and negative controls, and immunostained with an antibody against integrin α5β1.

HUVEC [9] = test: adhesion of HUVEC on plates covered with recombinant protein; format: cell-based, human; conditions: plates covered with the protein; absorbance at 540 nm
Experimental: The endothelial cells derived from human umbilical vein (HUVEC) were used to examine ability of the domain II to support the adhesion of EC in plates covered with the recombinant protein.
The HUVEC were incubated on plates covered with VEGFR-1 FC, with the domain II (dII) recombinant, with fibronectin (FN) or bovine serum albumin (BSA). The protein VEGFR-1/Fc, and the fibronectin were used as positive controls and BSA as negative control.
The cells assayed were coloured and the absorbance was measured.

integrin α5β1 [10] = biological target: T2, integrin α5β1; test: solid-phase binding of purified integrin α5β1 to plates covered with dII or VEGFR-1/Fc; conditions: anti-integrin α5β1 antibody, colorimetric, absorbance at 405 nm
Experimental: The direct bind of the integrin α5β1 to the domain had been determined also with binding test on solid phase. The purified integrin α5β1 was added to plates covered with dII or with VEGFR-1/Fc like positive control and the integrin bound was measured using an antibody anti-integrin α5β1 and a colorimetric test.

| Molecule | binding to VEGF / inhibition of VEGF binding to its receptors (VEGF) | angiogenesis inhibitor activity (angiogenesis) | inhibition of adhesion of EC to VEGFR-1/Fc [1] | direct support of EC adhesion by plate-linked peptide (HUVEC [2]) | inhibition of EC migration induced by fibronectin [3] | dependence of EC adhesion to peptide 12 on divalent cations [4] | corneal neoangiogenesis (rabbit corneal tissue) | inhibition of adhesion of EC to fibronectin [5] | effect on VEGF-induced tubule formation (HUVEC [6]; 500 μg/ml peptide with VEGF 40 nM) | induction of formation of tubules of EC (HUVEC [6]; 500 μg/ml peptide, collagen I matrix) | formation of vascular structures in presence of VEGFR-1/Fc (HUVEC [6]; peptide in presence of VEGFR-1/Fc (data not shown)) | inhibition of EC migration induced by VEGFR-1/Fc [7] | integrin α5β1 aggregation / bead attachment on EC (integrin α5β1 [8]) | adhesion of HUVEC to coated protein (HUVEC [9]) | amount of integrin α5β1 bound to coated protein (integrin α5β1 [10]) |
| --- | --- | --- | --- | --- | --- | --- | --- | --- | --- | --- | --- | --- | --- | --- | --- |
| NITVTLKKFPL (listed as Homo sapiens) [peptide 5] | without binding to VEGF or inhibiting VEGF binding to its receptors | act as an angiogenesis inhibitor | effectively blocked; also recorded: inhibit cellular adhesion to sVEGFR-1 |  |  |  |  |  |  |  |  |  |  |  |  |
| NYLTHRQ (listed as Homo sapiens) [peptide 12] |  |  | effectively blocked; also recorded: inhibit cellular adhesion to sVEGFR-1 | induced the adhesion of EC; also recorded: directly supports the adhesion of EC | no significant inhibition | requires divalent cations; also recorded: sensitive to divalent cations | strongly promoted neoangiogenesis | partially inhibit | increased the formation of induced VEGF tubules | able to induce in vitro the formation of vascular structures | partially maintained its ability to induce the formation of vascular structures | completely annulled the migratory response; also recorded: inhibits the induced cellular migration from VEGFR-1 | A separate colouring for integrin α5β1 was observed around the beads |  |  |
| dII recombinant: recombinant protein corresponding to VEGFR-1 domain II (residues 129-229), produced in SF9 cells (protein, left off: small tags and cut ends, recombinant protein corresponding to VEGFR-1 domain II (residues 129-229), produced in SF9 cells) SDTGRPFVEMYSEIPEIIHMTEGRELVIPCRVTSPNITVTLKKFPLDTLIPDGKRIIWDSRKGFIISNATYKEIGLLTCEATVNGHLYKTNYLTHRQTNTI |  |  |  |  |  |  |  |  |  |  |  |  |  | supported the adhesion of the HUVEC | a similar amount of integrin interacted |
